Laboratory results: paper PMC10900215 (JACS Au, 2024)
Values joined by “and” are separate entries in the source; they are usually repeats but may differ in a detail not shown here. Equal values may be shown once. “Also recorded” adds a separate entry of the source.

Legend:
[1] = target: PRDM9 (Homo sapiens, UniProt Q9NQV7); experiment: Protein methyltransferases selectivity profile; type: biochemical; details: control compound
Excerpt: (§1) Remaining activity [%][a]
(§2) Methyltransferase Control IC50 (M) Control […]
(§3) concerning the buffer solution containing DMSO. The closer to 100% these values are, the weaker the […]
(§4) Table S2. Hook curve amplitudes derived from the TR-FRET ternary complex formation assay with all compounds in the paper. n = number of independent measurements (biological replicates).
(§5) Compound amplitude n Compound amplitude n […]

[2] = target: T1, METTL3 (Homo sapiens, UniProt Q86U44); experiment: Cellular degradation assay (Western blot), METTL3 in MOLM-13; type: cell-based
T1 construct: METTL3–14 degradation up to 70% of the endogenous level; endogenous in cells; host or cells: MOLM-13, PC3, DU145
Method in brief: (§6)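 Leukemia and prostate lines are grown in RPMI 1640 plus 10% FBS, then exposed for 24h to PROTAC or vehicle. Lysates are immunoblotted for METTL3 and METTL14, and band intensities are quantified.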

[3] = tested on: METTL14; experiment: Cellular degradation assay (Western blot), METTL14 in MOLM-13; type: cell-based, human; details: MOLM-13, 24 h, 2 μM compound
Method in brief: as §6

[4] = target: T2, ternary complex CRBN/PROTAC/METTL3–14 (Homo sapiens, UniProt Q86U44+Q96SW2); experiment: FRET-based ternary complex formation assay (TCFA); type: binding
T2 construct: methyltransferase domains (MTD) of METTL3 (residues 354–580); His6 (N, cleaved yes); made in house; host or cells: METTL3-MTD/METTL14-MTD: baculovirus/Sf9; CRBN-TBD: E. coli Rosetta (DE3), co-expressed with BirA
Method in brief: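 HTRF/TR-FRET measurement of PROTAC-induced complex between GST-tagged METTL3–14 and biotinylated CRBN^TBD-Avi (10 nM final) with 0.8 nM Eu^3+ anti-GST antibody, in 50 mM HEPES pH 7.5, 150 mM NaCl, 0.1% BSA, 100 mM KF. Emission ratio used; ECmax and Hook-curve amplitude taken from Gaussian fit or highest-signal data point.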

[5] = Cell viability assay (CellTiter-Glo) on MOLM-13; type: cell-based; details: human, MOLM-13 cells, average of two biological replicates
Method in brief: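 MOLM-13 AML cells grown in RPMI 1640 with 10% FBS at 37 °C, 5% CO2. Viability read as ATP luminescence by CellTiter-Glo after 10 min at room temperature, with background from cell-free medium wells subtracted.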

[6] = target: T3, METTL3-14 (Homo sapiens, UniProt Q86U44); experiment: Cellular degradation assay (Western blot), METTL3 and/or METTL14 (METTL3–14) in MOLM-13; type: cell-based; design: METTL3–14 degradation up to 70% of the endogenous level; endogenous in cells; host or cells: MOLM-13, KASUMI-1, THP-1, NOMO-1; details: for degradation of METTL3 and/or METTL14: MOLM-13, 2 μM, 24 h, Western blot
Description: MOLM-13, NOMO-1, THP-1, Kasumi-1, PC3, and DU145 cell lines were obtained from DSMZ-German Collection of Microorganisms and Cell Cultures GmbH. […] All cell lines were tested negative for mycoplasma contamination (PCR-based assay by Microsynth, Switzerland).
METTL3 (and METTL14) protein degradation was monitored by Western blot. Cells were treated with the indicated concentration of PROTACs or DMSO control (0.1% (v/v)) for 24h, 37 °C with 5% CO2. […] After SDS-PAGE, proteins were transferred to a nitrocellulose membrane, blocked (with 5% milk, 0.5% BSA in TBST buffer), and incubated overnight with primary antibodies. […] Densitometry was performed in Image Studio Lite software and analyzed in GraphPad Prism 9.
Target sequence in this assay (Q86U44 2-580 limits assumed): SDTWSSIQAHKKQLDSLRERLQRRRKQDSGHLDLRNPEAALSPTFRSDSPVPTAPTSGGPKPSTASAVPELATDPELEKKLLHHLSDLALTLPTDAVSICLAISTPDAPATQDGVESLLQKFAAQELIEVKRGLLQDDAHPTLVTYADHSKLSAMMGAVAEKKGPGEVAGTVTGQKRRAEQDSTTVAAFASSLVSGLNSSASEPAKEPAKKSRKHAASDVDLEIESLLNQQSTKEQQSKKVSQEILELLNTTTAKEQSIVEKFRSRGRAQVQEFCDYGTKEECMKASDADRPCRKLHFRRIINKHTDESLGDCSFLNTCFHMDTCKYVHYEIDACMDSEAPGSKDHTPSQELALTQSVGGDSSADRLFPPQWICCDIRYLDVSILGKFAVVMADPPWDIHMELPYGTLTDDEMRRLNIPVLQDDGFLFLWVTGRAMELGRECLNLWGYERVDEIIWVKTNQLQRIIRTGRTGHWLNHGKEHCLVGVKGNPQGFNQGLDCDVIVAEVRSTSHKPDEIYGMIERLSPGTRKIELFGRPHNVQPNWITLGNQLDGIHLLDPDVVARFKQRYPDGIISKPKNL
Target sequence in this assay (Q9HCE5 whole entry partner): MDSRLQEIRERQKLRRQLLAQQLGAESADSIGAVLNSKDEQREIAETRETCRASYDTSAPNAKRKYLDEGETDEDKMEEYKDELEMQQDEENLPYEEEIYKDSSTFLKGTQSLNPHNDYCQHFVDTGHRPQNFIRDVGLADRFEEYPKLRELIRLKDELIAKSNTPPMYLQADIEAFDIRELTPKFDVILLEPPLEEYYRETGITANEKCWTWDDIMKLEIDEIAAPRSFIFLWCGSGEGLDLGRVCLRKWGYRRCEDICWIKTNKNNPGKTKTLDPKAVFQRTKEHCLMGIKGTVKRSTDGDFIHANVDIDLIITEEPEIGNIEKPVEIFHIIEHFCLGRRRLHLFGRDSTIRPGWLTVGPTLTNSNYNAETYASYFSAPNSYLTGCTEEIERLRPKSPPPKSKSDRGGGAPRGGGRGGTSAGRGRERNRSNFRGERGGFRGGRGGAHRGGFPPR

[7] = target: SETD2 (Homo sapiens, UniProt Q9BYW2); experiment: Protein methyltransferases selectivity profile; type: biochemical; details: control compound
Excerpt: as §1, §2, §3, §4, §5

[8] = target: SMYD3 (Homo sapiens, UniProt Q9H7B4); experiment: Protein methyltransferases selectivity profile; type: biochemical; details: control compound
Excerpt: as §1, §2, §3, §4, §5

[9] = target: T3, METTL3-14; experiment: Protein methyltransferases selectivity profile; type: biochemical
Excerpt: as §1, §2, §3, §4, §5
Target sequence in this assay (Q86U44 whole entry): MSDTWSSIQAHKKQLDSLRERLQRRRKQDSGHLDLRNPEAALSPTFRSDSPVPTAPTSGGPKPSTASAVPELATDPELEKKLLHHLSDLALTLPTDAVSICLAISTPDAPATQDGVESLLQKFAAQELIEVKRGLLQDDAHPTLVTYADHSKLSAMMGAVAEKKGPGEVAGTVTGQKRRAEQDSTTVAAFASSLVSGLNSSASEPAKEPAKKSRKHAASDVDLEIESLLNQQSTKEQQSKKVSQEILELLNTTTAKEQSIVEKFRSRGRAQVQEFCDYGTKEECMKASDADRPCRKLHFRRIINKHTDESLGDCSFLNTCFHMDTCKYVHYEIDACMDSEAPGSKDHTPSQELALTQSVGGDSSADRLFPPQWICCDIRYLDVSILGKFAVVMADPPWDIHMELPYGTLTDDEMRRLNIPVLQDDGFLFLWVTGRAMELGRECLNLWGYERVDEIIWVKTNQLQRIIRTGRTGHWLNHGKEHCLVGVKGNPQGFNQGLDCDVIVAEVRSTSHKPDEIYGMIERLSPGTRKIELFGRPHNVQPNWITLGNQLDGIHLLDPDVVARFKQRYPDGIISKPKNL
Target sequence in this assay (Q9HCE5 whole entry partner): as the sequence (Q9HCE5 whole entry partner) above

[10] = tested on: PC3 cell line; experiment: Cell viability assay (CellTiter-Glo) on PC3; type: cell-based, human
Description: MOLM-13, NOMO-1, THP-1, Kasumi-1, PC3, and DU145 cell lines were obtained from DSMZ-German Collection of Microorganisms and Cell Cultures GmbH. Cells were cultured in RPMI 1640 medium (11875093, Thermo Fisher Scientific) containing 10% FBS (16140071, Thermo Fisher Scientific) and 1% penicillin-streptomycin (15140122, Thermo Fisher Scientific) in 5% CO2 at 37 °C in a humidified incubator, with maintained cell densities at 0.5–1 × 10^6 cells/mL. All cell lines were tested negative for mycoplasma contamination (PCR-based assay by Microsynth, Switzerland).
Cells were seeded in white clear-bottom 96-well plates at a density of 6–20 × 10^3 cells/well in 50 μL of the complete RPMI medium and treated with 50 μL of increasing concentrations of the indicated compounds dissolved in DMSO (final concentration of compounds 0.01–10 μM) or DMSO only as a negative control (0.01% (v/v)) and incubated for 72 h at 37 °C with 5% CO2. Cell viability was determined using a CellTiter-Glo luminescent cell viability assay (Promega) based on the detection of ATP according to the manufacturer’s instructions. 100 μL of the reagent was added to each well and incubated for 10 min at room temperature. The luminescence was recorded using a Tecan Infinite […] M1000 microplate reader from the top. Background luminescence value was obtained from wells containing the CellTiter-Glo reagent and medium without cells. The resulting data was analyzed in GraphPad Prism 9.

[11] = target: T4, METTL3 (Homo sapiens, UniProt Q86U44+Q96SW2); experiment: In vitro ubiquitination assay, METTL3; type: biochemical; details: 2, 8, and 32 μM, 30 °C, 2 h
T4 construct: Human full-length METTL3-METTL14 was expressed and purified as described above; Human full-length cereblon-DDB1 and 6xHis-CUL4A-6xHis-RBX1 were coexpressed; StrepII (N); GFP (N); TEV site (N); made in house; host or cells: baculovirus/Sf9 insect cells (METTL3-METTL14, cereblon-DDB1, CUL4A-RBX1)
Description: For the cell-free in vitro ubiquitination of METTL3-METTL14 purified E1, E2, ubiquitin, CUL4A-RBX1, Cereblon-DDB1, and METTL3-METTL14 were used. Human full-length METTL3-METTL14 was expressed and purified as described above. […] Purified recombinant human UBE1 E1 (E-305–025) was purchased from R&D Systems, UbcH5a E2 (23–029) from Merck and ubiquitin (SBB-UP0013) from South Bay Bio. For the ubiquitination reaction, components were mixed to final concentrations of 0.06 μM UBE1, 1.96 μM UbcH5a, 39 μM ubiquitin, 0.33 μM CUL4A-RBX1, 0.33 μM Cereblon-DDB1, 0.5 μM METTL3-METTL14, and different concentrations of compound 14 or me-14 (0, 2, 8, or 32 μM) in reaction buffer (50 mM Tris-HCl pH 7.6, 5 mM MgCl2, 0.2 mM CaCl2, 1 mM DTT, 100 mM NaCl, 0.01% BSA, 0.01% Triton X-100). The final reaction volume was 15 μL. After the addition of 2 mM ATP (or the equal volume of water for the control without ATP), the reaction mixture was incubated for 2 h at 30 °C. […] The signals were quantified by using the Image Studio Lite software. To determine the percentage of ubiquitinated METTL3, the fraction of unmodified METTL3 was calculated by dividing the signal of the band assigned to unmodified METTL3 by the signal of the area containing both the unmodified and (poly)ubiquitinated METTL3 and normalizing to the control without ATP. […]

[12] = target: T5, Cereblon (CRBN) (Homo sapiens, UniProt Q96SW2); experiment: Cellular thermal shift assay (CETSA) in MOLM-13, Cereblon; type: cell-based; details: MOLM-13, 54 °C
T5 construct: endogenous in cells; host or cells: MOLM-13

[13] = target: T1, METTL3; experiment: Cellular thermal shift assay (CETSA) in MOLM-13, METTL3; type: cell-based; details: MOLM-13, 54 °C
Description: One million of MOLM-13 cells were suspended in 100 μL of PBS (10010023, Thermo Fisher Scientific) containing 2× protease inhibitor cocktail (11697498001, Roche), for each condition tested. Cells were incubated with compounds or DMSO control (1% (v/v)) for 1 h at 37 °C. They were then heat treated at 54 °C in a thermoblock for 3 min, followed by cooling to room temperature (3 min). Next, samples were lysed by threefreeze–thaw cycles in liquid nitrogen and centrifuge at 16000 g for 30 min, 4 °C. Equal volumes of control and tested samples (12 μL) were analyzed by Western blot. The changes in the amount of METTL3 protein (after normalization for β-actin and/or GAPDH) were monitored by performing densitometry in Image Studio Lite software and analyzed in GraphPad Prism 9.

[14] = target: His-GST-METTL3^MTD-METTL14^MTD (human) (UniProt Q86U44)
Sequence of His-GST-METTL3^MTD-METTL14^MTD (human) (Q86U44 354-580, chain 1 of 2): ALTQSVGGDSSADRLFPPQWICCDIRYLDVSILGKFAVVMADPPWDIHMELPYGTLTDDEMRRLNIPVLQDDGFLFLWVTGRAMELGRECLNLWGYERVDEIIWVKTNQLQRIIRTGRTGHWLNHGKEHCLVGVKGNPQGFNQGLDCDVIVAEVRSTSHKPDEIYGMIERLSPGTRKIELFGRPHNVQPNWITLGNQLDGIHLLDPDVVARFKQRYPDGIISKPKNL
Sequence of His-GST-METTL3^MTD-METTL14^MTD (human) (chain, as listed by the source, chain 2 of 2): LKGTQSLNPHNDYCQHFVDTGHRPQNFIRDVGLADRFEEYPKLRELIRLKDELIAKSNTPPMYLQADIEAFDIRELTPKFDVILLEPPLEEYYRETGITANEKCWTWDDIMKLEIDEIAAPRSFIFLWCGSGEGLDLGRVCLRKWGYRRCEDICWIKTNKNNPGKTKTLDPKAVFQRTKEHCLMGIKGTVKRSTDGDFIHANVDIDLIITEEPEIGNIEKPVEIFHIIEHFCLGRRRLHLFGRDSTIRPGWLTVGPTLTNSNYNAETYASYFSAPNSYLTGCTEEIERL

T2 sequence (Q86U44 354-580): as the sequence (Q86U44 354-580, chain 1 of 2) above
T2 sequence (Q9HCE5 107-395 partner limits assumed): as the sequence (chain, as listed by the source, chain 2 of 2) above
T2 sequence (Q96SW2 318-442): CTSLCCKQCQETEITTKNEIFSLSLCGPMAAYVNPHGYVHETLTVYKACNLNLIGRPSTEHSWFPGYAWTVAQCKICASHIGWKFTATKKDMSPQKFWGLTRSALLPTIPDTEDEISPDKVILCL
T1 sequence (Q86U44 2-580 limits assumed): as the sequence (Q86U44 2-580 limits assumed) above
T1 sequence (Q9HCE5 whole entry partner): as the sequence (Q9HCE5 whole entry partner) above
Sequence of SETD2 (Q9BYW2 whole entry, species assumed): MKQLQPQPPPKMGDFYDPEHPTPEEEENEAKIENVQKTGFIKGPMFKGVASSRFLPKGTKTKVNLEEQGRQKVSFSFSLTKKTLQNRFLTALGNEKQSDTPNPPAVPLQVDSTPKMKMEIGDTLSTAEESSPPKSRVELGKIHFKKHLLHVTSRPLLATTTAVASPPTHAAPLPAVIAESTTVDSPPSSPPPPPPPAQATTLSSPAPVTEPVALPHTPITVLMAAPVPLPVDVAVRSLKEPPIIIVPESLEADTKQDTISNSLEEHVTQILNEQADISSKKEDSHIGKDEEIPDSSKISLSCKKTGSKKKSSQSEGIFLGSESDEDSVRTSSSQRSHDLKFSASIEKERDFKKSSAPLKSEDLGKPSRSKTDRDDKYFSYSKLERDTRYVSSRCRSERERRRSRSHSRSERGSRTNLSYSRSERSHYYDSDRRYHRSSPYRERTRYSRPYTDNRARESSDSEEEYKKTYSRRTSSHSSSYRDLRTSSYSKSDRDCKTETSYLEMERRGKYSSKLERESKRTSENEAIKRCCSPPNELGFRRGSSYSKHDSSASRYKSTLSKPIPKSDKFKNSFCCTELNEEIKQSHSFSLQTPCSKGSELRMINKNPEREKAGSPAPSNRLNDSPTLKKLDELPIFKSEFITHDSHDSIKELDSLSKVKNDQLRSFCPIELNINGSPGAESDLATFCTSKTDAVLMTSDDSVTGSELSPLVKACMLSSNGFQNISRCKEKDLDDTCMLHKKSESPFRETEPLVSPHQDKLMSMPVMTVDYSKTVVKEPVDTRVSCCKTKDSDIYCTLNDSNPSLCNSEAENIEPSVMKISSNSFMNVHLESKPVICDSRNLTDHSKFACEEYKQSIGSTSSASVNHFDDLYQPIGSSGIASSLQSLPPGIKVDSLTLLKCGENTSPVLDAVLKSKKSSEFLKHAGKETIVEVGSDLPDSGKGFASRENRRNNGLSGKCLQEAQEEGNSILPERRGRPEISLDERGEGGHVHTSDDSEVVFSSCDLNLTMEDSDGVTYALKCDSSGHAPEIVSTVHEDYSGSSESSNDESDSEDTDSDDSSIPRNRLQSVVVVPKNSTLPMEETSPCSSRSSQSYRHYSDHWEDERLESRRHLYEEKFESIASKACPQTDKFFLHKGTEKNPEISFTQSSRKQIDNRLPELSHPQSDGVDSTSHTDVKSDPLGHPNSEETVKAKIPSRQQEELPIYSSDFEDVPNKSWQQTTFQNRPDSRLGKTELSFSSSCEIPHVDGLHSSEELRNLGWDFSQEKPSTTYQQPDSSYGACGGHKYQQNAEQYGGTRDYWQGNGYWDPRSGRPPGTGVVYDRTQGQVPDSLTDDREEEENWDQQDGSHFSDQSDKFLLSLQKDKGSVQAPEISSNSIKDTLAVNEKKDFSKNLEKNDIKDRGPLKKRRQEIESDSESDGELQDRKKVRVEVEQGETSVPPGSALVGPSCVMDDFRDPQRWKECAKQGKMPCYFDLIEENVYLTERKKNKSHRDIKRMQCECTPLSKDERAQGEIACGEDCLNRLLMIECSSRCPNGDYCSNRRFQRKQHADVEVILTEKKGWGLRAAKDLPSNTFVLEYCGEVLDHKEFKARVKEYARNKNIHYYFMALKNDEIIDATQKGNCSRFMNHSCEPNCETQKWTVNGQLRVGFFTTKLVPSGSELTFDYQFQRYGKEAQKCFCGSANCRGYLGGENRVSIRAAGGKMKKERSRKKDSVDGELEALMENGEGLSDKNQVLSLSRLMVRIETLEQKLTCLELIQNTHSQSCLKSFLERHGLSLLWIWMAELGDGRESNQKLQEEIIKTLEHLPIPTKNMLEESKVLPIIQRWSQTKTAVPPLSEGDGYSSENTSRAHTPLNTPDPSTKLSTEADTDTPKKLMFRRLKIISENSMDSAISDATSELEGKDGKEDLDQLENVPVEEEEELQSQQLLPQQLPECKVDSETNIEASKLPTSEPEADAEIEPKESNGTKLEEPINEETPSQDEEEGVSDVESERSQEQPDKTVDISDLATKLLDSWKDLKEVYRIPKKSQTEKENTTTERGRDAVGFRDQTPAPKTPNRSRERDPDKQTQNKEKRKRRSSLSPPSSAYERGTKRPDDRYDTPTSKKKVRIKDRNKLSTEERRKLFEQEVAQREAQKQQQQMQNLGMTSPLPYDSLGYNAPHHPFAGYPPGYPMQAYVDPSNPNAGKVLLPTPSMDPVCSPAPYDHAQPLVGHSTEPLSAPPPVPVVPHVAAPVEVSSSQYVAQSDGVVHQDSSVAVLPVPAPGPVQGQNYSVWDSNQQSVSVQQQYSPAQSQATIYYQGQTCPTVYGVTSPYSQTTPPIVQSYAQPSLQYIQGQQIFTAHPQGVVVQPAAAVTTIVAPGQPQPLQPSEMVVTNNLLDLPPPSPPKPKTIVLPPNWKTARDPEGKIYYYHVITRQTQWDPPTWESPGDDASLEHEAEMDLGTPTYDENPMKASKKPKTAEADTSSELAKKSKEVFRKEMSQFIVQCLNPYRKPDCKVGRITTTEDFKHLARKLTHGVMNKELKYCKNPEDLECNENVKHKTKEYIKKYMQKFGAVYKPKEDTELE

Work on `CN1C(=O)[C@@]23C[C@]4([C@]56C[C@@]78SS[C@@](CO)(C(=O)N7[C@H]5Nc5ccccc56)N(C)C8=O)c5ccccc5N[C@@H]4N2C(=O)[C@]1(CO)SS3` [Chaetocin] yielded an IC50 [1] of 905 nM.
In the case of `CC1(C)CCN(Cc2cc(F)c(N3CC(=O)NC4(CCN(c5cc(NCCN6CCN(c7cnc(N8CCN(C(=O)CCCNc9cccc%10c9C(=O)N(C9CCC(=O)NC9=O)C%10=O)CC8)nc7)CC6)ncn5)CC4)C3)cc2F)CC1` (stereo not shown) [Compound 33], the “MOLM-13 West. blot at 24h 2 μM comp conc. Degradation (%) of METTL3” value ([2]; MOLM-13, 24 h, 2 μM compound) is reported as 44% and 44 ± 6%, the “MOLM-13 West. blot at 24h 2 μM comp conc. Degradation (%) of METTL14” value [3] is reported as 51 ± 19% and the “TCFA amplitude (mean ± SEM)” value ([4]; Hook curve amplitude, fraction of the maximum of compound 16) is reported as 0.8 ± 0.1. The “ECmax (nM) ± SD” value ([4]; PROTAC concentration at the maximum of the signal in the TCFA) was 70 ± 10 nM, the viability at 72 h, 0.6 µM ([5]; 0.6 µM) was 92.1% and the viability at 72 h, 1.25 µM ([5]; 1.25 µM) was 90.9%. It also gave a viability at 72 h, […] ([5]; 2.5 µM) of 95.3%, a viability at 72 h, 5 µM ([5]; 5 µM) of 97.7% and a viability at 72 h, 10 µM ([5]; 10 µM) of 89.6%. The “degradation of METTL3 and/or METTL14” value [6] was “at least 50%”.
Compound `Nc1ncnc2c1ncn2[C@@H]1O[C@H](CSCC[C@H](N)C(=O)O)[C@@H](O)[C@H]1O` [SAH, S-(5’-adenosyl)-L-homocysteine] has an IC50 [7] of 1380 nM, an IC50 [8] of 8480 nM and an IC50 [9] of 153 nM.
With `CNc1cc(N2CCC3(CC2)CN(c2cc(F)c(CN4CCC(C)(C)CC4)cc2F)CC(=O)N3)ncn1` [UZH2, reference compound] the “activity / signal in the ternary complex formation assay” value [4] was “no activity”, the antiproliferative effect [10] was “not” and the “METTL3–14 levels” value ([6]; MOLM-13, 10 μM UZH2 control without PROTAC) was “elevated levels of METTL3–14”.
For `CN1C(=O)CCC(N2C(=O)c3cccc(NCCCC(=O)NCc4cccc(CNc5cc(N6CCC7(CC6)CN(c6cc(F)c(CN8CCC(C)(C)CC8)cc6F)CC(=O)N7)ncn5)c4)c3C2=O)C1=O` (stereo not shown) [me-14], the “ubiquitination of METTL3 compared to the control without compound” value [11] was “does not increase”, the “stabilization of Cereblon (CETSA)” value [12] was “not of CRBN” and the “stabilization of METTL3 (CETSA)” value [13] was “stabilize METTL3 in a concentration-dependent manner; also recorded: stabilization of METTL3”. For the same compound, the METTL3 levels ([2]; MOLM-13, 10 μM) was “increased METTL3 levels”, the “degradation of METTL3 and/or METTL14” value [6] was “did not show any METTL3–14 degradation” and the “degradation of METTL3 and METTL14, concentration dependence” value ([6]; MOLM-13, five concentrations) was “no degradation”.
With “CRBN^TBD-Avi(biotin) (from UniProt Q96SW2 318-442) (domain or fragment)” the degradation of METTL3 and METTL14 in MOLM-13 cells (Western blot) with PROTAC 30 at five concentrations; Hook effect [14] was 60% and the degradation of METTL3 in MOLM-13 cells (Western blot) with PROTAC 14 at five concentrations; Hook effect [14] was 50%.
